Biological target: Recombinant human KIF18A (1-467 His-tagged) protein (Homo sapiens (Human), UniProt Q8NI77)
Experiment: KIF18A Enzyme Assay: microtubule-stimulated ATPase activity (ADP-Glo)
Conditions: read-out: KIF18A ATPase IC50; 30 nM KIF18A, 30 μg/mL pig microtubules, ATP at Km 75 μM, ADP-Glo luminescence
Description: KIF18A Enzyme Assay: Microtubule-stimulated ATPase activity assay is used to measure KIF18A enzyme activity after treatment with compound. Compounds were 2-fold serially diluted in DMSO (Sigma Inc) over 22-point concentration range. […] The assay measures ADP formed from the ATPase reaction.

Sequence of Recombinant human KIF18A (1-467 His-tagged) protein (Q8NI77 1-467): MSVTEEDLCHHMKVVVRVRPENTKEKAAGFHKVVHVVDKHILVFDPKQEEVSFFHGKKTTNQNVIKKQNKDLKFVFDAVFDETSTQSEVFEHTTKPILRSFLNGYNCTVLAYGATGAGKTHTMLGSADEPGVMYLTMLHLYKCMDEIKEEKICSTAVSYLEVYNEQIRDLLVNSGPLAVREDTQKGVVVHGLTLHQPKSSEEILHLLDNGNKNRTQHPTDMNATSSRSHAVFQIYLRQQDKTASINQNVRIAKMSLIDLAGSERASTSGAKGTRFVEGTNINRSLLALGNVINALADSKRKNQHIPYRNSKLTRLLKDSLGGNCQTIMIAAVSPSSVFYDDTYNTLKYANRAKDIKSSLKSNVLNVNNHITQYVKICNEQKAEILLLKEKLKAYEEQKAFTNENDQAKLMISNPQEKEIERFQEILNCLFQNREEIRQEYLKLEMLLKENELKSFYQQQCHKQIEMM
Sequence of Recombinant human KIF18A (1-467 His-tagged) protein (P02550 whole entry partner): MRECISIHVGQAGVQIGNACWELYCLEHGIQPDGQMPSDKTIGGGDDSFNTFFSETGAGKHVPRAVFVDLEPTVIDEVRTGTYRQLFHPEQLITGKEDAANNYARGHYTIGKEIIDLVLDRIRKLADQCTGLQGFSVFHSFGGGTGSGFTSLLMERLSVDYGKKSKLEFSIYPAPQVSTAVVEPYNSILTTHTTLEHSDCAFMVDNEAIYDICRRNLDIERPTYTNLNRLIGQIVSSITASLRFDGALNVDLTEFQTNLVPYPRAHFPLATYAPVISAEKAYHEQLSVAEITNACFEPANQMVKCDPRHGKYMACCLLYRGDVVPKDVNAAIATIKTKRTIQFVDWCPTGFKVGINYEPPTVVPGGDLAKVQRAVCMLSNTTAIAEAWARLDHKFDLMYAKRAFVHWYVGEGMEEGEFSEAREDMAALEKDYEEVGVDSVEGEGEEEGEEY
Sequence of Recombinant human KIF18A (1-467 His-tagged) protein (P02554 whole entry partner): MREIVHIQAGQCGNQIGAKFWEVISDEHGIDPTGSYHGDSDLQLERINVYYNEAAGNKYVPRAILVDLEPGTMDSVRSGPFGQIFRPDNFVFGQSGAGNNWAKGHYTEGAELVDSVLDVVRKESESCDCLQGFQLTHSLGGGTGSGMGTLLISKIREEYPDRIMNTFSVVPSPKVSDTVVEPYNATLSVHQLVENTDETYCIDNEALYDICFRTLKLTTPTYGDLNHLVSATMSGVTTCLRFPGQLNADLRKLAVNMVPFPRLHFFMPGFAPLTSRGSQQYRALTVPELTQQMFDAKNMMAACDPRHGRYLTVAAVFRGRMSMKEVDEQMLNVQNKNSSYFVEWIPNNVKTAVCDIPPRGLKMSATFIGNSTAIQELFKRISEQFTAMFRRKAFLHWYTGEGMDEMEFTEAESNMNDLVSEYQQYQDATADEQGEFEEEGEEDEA

**Q.** `Cc1cc(NC(=O)c2ccc(S(=O)(=O)[C@@H]3COC[C@H]3O)cc2N2CCC3(CC2)CC3)nc(N2CCC(F)(F)CC2)n1` [Example 14-7, N-(2-(4,4-Difluoropiperidin-1-yl)-6-methylpyrimidin-4-yl)-4-(((3R,4R)-4-hydroxytetrahydrofuran-3-yl)sulfonyl)-2-(6-azaspiro[2.5]octan-6-yl)benzamide] was tested. Which IC50 did it give?
**A.** 94 nM

**Q.** Which IC50 does the source give for `Cc1cc(NC(=O)c2ccc(S(=N)(=O)C3CC3)cc2N2CCC3(CC2)CC3)nc(N2CC(F)(F)C2)n1` (stereo not shown) [Example 19-9, 4-(Cyclopropanesulfonimidoyl)-N-(2-(3,3-difluoroazetidin-1-yl)-6-methylpyrimidin-4-yl)-2-(6-azaspiro[2.5]octan-6-yl)benzamide] here?
**A.** 69 nM

**Q.** `Cc1cc(NC(=O)c2ccc(NS(=O)(=O)C[C@@H](C)O)cc2N2CCC3(CC2)CC3)nc(OCCC(F)(F)F)n1` [Example 6-28-1, (R)-4-((2-Hydroxypropyl)sulfonamido)-N-(6-methyl-2-(3,3,3-trifluoropropoxy)pyrimidin-4-yl)-2-(6-azaspiro[2.5]octan-6-yl)benzamide] was tested. Which IC50 did it give?
**A.** 68 nM

**Q.** Which IC50 does the source give for `Cc1cc(NC(=O)c2ccc(NS(=O)(=O)CCO)cc2N2CCC3(CC2)CC3)nc(N2CCC(F)CC2)n1` [Example 11-51, N-(2-(4-Fluoropiperidin-1-yl)-6-methylpyrimidin-4-yl)-4-((2-hydroxyethyl)sulfonamido)-2-(6-azaspiro[2.5]octan-6-yl)benzamide] here?
**A.** 20 nM

**Q.** Which IC50 does the source give for `Cc1cc(NC(=O)c2ccc(S(=O)(=O)NC3(C)COC3)cc2N2CCC3(CC2)CC3)nc(N2CCC(F)(F)CC2)n1` [Example 2-5, N-(2-(4,4-Difluoropiperidin-1-yl)-6-methylpyrimidin-4-yl)-4-(N-(3-methyloxetan-3-yl)sulfamoyl)-2-(6-azaspiro[2.5]octan-6-yl)benzamide] here?
**A.** 103 nM

**Q.** `Cc1cc(NC(=O)c2ccc(S(=O)(=O)C3CN(C)C3)cc2N2CCC3(CC2)CC3)nc(N2CCC(F)(F)CC2)n1` [Example 22, N-(2-(4,4-Difluoropiperidin-1-yl)-6-methylpyrimidin-4-yl)-4-((1-methylazetidin-3-yl)sulfonyl)-2-(6-azaspiro[2.5]octan-6-yl)benzamide] was tested. Which IC50 did it give?
**A.** 406 nM

**Q.** For `Cc1cc(NC(=O)c2ccc(NS(=O)(=O)CCO)cc2N2CCC3(CC2)CC3)nc(C(C)C)n1` [Example 11-2, 4-((2-Hydroxyethyl)sulfonamido)-N-(2-isopropyl-6-methylpyrimidin-4-yl)-2-(6-azaspiro[2.5]octan-6-yl)benzamide], which IC50 is on record?
**A.** 27 nM

**Q.** `Cc1cc(NC(=O)c2ccc(NS(=O)(=O)CCO)cc2N2CCC3(CC2)CC3)nc(N2CC(O)C2)n1` [Example 11-20, N-(2-(3-Hydroxyazetidin-1-yl)-6-methylpyrimidin-4-yl)-4-((2-hydroxyethyl)sulfonamido)-2-(6-azaspiro[2.5]octan-6-yl)benzamide] was tested. Which IC50 did it give?
**A.** 48.3 nM

**Q.** How did the IC50 turn out when `Cc1cc(NC(=O)c2ccc(S(=O)(=O)[C@H]3COC[C@@H]3O)cc2N2CCC3(CC2)CC3)nc(N2CCC(F)(F)CC2)n1` [Example 14-8, N-(2-(4,4-Difluoropiperidin-1-yl)-6-methylpyrimidin-4-yl)-4-(((S,4S)-4-hydroxytetrahydrofuran-3-yl)sulfonyl)-2-(6-azaspiro[2.5]octan-6-yl)benzamide] was run?
**A.** 97 nM

**Q.** Which IC50 does the source give for `Cc1cc(NC(=O)c2ccc(NS(=O)(=O)CCO)cc2N2CCC3(CC2)CC3)nc(N2CC3(CC3)C2)n1` [Example 11-17, 4-((2-Hydroxyethyl)sulfonamido)-N-(6-methyl-2-(5-azaspiro[2.3]hexan-5-yl)pyrimidin-4-yl)-2-(6-azaspiro[2.5]octan-6-yl)benzamide] here?
**A.** 1090 nM

**Q.** With `Cc1cc(NC(=O)c2ccc(NS(=O)(=O)CF)cc2N2CCC3(CC2)CC3)nc(N2CCC(F)(F)CC2)n1` [Example 6-2, N-(2-(4,4-Difluoropiperidin-1-yl)-6-methylpyrimidin-4-yl)-4-((fluoromethyl)sulfonamido)-2-(6-azaspiro[2.5]octan-6-yl)benzamide] as the compound, how does the IC50 read?
**A.** 42 nM

**Q.** For `Cc1cc(NC(=O)c2ccc(S(=N)(=O)C3COC3)cc2N2CCC3(CC2)CC3)nc(N2CCC(F)(F)CC2)n1` (stereo not shown) [Example 19-1, N-(2-(4,4-Difluoropiperidin-1-yl)-6-methylpyrimidin-4-yl)-4-(oxetane-3-sulfonimidoyl)-2-(6-azaspiro[2.5]octan-6-yl)benzamide], which IC50 is on record?
**A.** 163 nM

**Q.** Which IC50 does the source give for `Cc1cc(NC(=O)c2ccc(NS(=O)(=O)[C@H]3CCOC3)cc2N2CCC3(CC2)CC3)nc(N2CC(F)(F)C2)n1` [Example 11-70, (S)-N-(2-(3,3-Difluoroazetidin-1-yl)-6-methylpyrimidin-4-yl)-2-(6-azaspiro[2.5]octan-6-yl)-4-((tetrahydrofuran)-3-sulfonamido)benzamide] here?
**A.** 72 nM

**Q.** For `Cc1cc(NC(=O)c2ccc(NS(=O)(=O)[C@@H](CO)CF)cc2N2CCC3(CC2)CC3)nc(N2CCC(F)(F)CC2)n1` [Example 16-2, (S)-N-(2-(4,4-Difluoropiperidin-1-yl)-6-methylpyrimidin-4-yl)-4-((2-fluoro-1-(hydroxymethyl)ethyl)sulfonamido)-2-(6-azaspiro[2.5]octan-6-yl)benzamide], which IC50 is on record?
**A.** 96 nM

**Q.** `Cc1cc(NC(=O)c2ccc(S(=O)(=O)C(C)C)cc2N2CCC3(CC2)CC3)nc(N2CCC(F)(F)CC2)n1` [Example 14-3, N-(2-(4,4-Difluoropiperidin-1-yl)-6-methylpyrimidin-4-yl)-4-(isopropylsulfonyl)-2-(6-azaspiro[2.5]octan-6-yl)benzamide] was tested. Which IC50 did it give?
**A.** 128 nM

**Q.** `C[C@H](O)CS(=O)(=O)Nc1ccc(C(=O)Nc2ccnc(N3CCO[C@H](C)C3)n2)c(N2CCC3(CC2)CC3)c1` [Example 6-33-1, 4-(((S)-2-Hydroxypropyl)sulfonamido)-N-(2-((R)-2-methylmorpholino)pyrimidin-4-yl)-2-(6-azaspiro[2.5]octan-6-yl)benzamide] was tested. Which IC50 did it give?
**A.** 115 nM

**Q.** `Cc1cc(NC(=O)c2ccc(NS(=O)(=O)C3([C@@H](C)O)CC3)cc2N2CCC3(CC2)CC3)nc(N2CCC(F)(F)CC2)n1` [Example 6-31-1, (R)-N-(2-(4,4-Difluoropiperidin-1-yl)-6-methylpyrimidin-4-yl)-4-((1-(1-hydroxyethyl)cyclopropane)-1-sulfonamido)-2-(6-azaspiro[2.5]octan-6-yl)benzamide] was tested. Which IC50 did it give?
**A.** 324 nM

**Q.** `Cc1cc(NC(=O)c2ccc(NS(=O)(=O)C3CC3)cc2N2CCC3(CC2)CC3)nc(N2CCC(F)(F)CC2)n1` [Example 6-16, 4-(Cyclopropanesulfonamido)-N-(2-(4,4-difluoropiperidin-1-yl)-6-methylpyrimidin-4-yl)-2-(6-azaspiro[2.5]octan-6-yl)benzamide] was tested. Which IC50 did it give?
**A.** 52 nM

**Q.** For `Cc1cc(NC(=O)c2ccc(S(C)(=O)=O)cc2N2CCC3(CC2)CC3)nc(N2CCC(F)(F)CC2)n1` [Example 2-6, N-(2-(4,4-Difluoropiperidin-1-yl)-6-methylpyrimidin-4-yl)-4-(methylsulfonyl)-2-(6-azaspiro[2.5]octan-6-yl)benzamide], which IC50 is on record?
**A.** 260 nM

**Q.** For `Cc1cc(NC(=O)c2ccc(NS(=O)(=O)CC3CC3)cc2N2CCC3(CC2)CC3)nc(N2CC(F)(F)C2)n1` [Example 11-78, 4-((Cyclopropylmethyl)sulfonamido)-N-(2-(3,3-difluoroazetidin-1-yl)-6-methylpyrimidin-4-yl)-2(6-azaspiro[2.5]octan-6-yl)benzamide], which IC50 is on record?
**A.** 125 nM

**Q.** For `Cc1cc(NC(=O)c2ccc(NS(=O)(=O)CCO)cc2N2CCC3(CC2)CC3)nc(N2[C@@H](C)COC[C@@H]2C)n1` [Example 11-49, N-(2-((3S,5S)-3,5-Dimethylmorpholino)-6-methylpyrimidin-4-yl)-4-((2-hydroxyethyl)sulfonamido)-2-(6-azaspiro[2.5]octan-6-yl)benzamide], which IC50 is on record?
**A.** 245 nM

**Q.** With `Cc1cc(NC(=O)c2ccc(NS(=O)(=O)CCO)cc2N2CCC3(CC2)CC3)nc(N2[C@H](C)COC[C@H]2C)n1` [Example 11-50, N-(2-((3R,5R)-3,5-Dimethylmorpholino)-6-methylpyrimidin-4-yl)-4-((2-hydroxyethyl)sulfonamido)-2-(6-azaspiro[2.5]octan-6-yl)benzamide] as the compound, how does the IC50 read?
**A.** 187 nM

**Q.** For `Cc1cc(NC(=O)c2ccc(NS(=O)(=O)CCO)cc2N2CCC3(CCC3)CC2)nc(N2CCC(F)(F)CC2)n1` [Example 11-40, N-(2-(4,4-Difluoropiperidin-1-yl)-6-methylpyrimidin-4-yl)-4-((2-hydroxyethyl)sulfonamido)-2-(7-azaspiro[3.5]nonan-7-yl)benzamide], which IC50 is on record?
**A.** 109 nM

**Q.** Which IC50 does the source give for `Cc1cc(NC(=O)c2ccc(S(=N)(=O)C(C)C)cc2N2CCC3(CC2)CC3)nc(N2CCC(F)(F)CC2)n1` (stereo not shown) [Example 19-5, N-(2-(4,4-Difluoropiperidin-1-yl)-6-methylpyrimidin-4-yl)-4-(propan-2-ylsulfonimidoyl)-2-(6-azaspiro[2.5]octan-6-yl)benzamide] here?
**A.** 175 nM

**Q.** For `Cc1cc(NC(=O)c2c(F)cc(NS(=O)(=O)CCO)cc2N2CCC3(CC2)CC3)nc(N2CCC(F)(F)CC2)n1` [Example 11-58, N-(2-(4,4-Difluoropiperidin-1-yl)-6-methylpyrimidin-4-yl)-2-fluoro-4-((2-hydroxyethyl)sulfonamido)-6-(6-azaspiro[2.5]octan-6-yl)benzamide], which IC50 is on record?
**A.** 71 nM

**Q.** `Cc1cc(NC(=O)c2ccc(NS(=O)(=O)C3(C)CC3)cc2N2CCC3(CC2)CC3)nc(N2CC(F)(F)C2)n1` [Example 11-74, N-(2-(3,3-Difluoroazetidin-1-yl)-6-methylpyrimidin-4-yl)-4-((1-methylcyclopropane)-1-sulfonamido)-2-(6-azaspiro[2.5]octan-6-yl)benzamide] was tested. Which IC50 did it give?
**A.** 94 nM

**Q.** How did the IC50 turn out when `CC1(NS(=O)(=O)c2ccc(C(=O)Nc3ccnc(N4CCC(F)(F)CC4)c3)c(N3CCC4(CC3)CC4)c2)COC1` [Example 2-4, N-(2-(4,4-Difluoropiperidin-1-yl)pyridin-4-yl)-4-(N-(3-methyloxetan-3-yl)sulfamoyl)-2-(6-azaspiro[2.5]octan-6-yl)benzamide] was run?
**A.** 29 nM

**Q.** With `Cc1cc(NC(=O)c2ccc(S(C)(=N)=O)cc2N2CCC3(CC2)CC3)nc(N2CCC(F)(F)CC2)n1` (stereo not shown) [Example 19-2, N-(2-(4,4-Difluoropiperidin-1-yl)-6-methylpyrimidin-4-yl)-4-(methylsulfonimidoyl)-2-(6-azaspiro[2.5]octan-6-yl)benzamide] as the compound, how does the IC50 read?
**A.** 438 nM

Reference: US11236069B2, “KIF18A inhibitors” (AMGEN INC., priority 2018, dated 2022)
